Source: article PMC6151589, “Identification of Optically Active Pyrimidine Derivatives as Selective 5-HT2C Modulators” (Molecules : A Journal of Synthetic Chemistry and Natural …, 2017)
pKi: −log10 of the molar value.

Columns and labels:
5-HT2C [1] = biological target: T1, 5-HT2C (Homo sapiens, UniProt P28335); experiment: radioligand displacement, membranes; format: binding
T1 construct: gene HTR2C; human recombinant receptor; crude membrane fractions of transfected cells (CHO-K1; HEK293 or CHO)
T1 sequence (P28335 33-458): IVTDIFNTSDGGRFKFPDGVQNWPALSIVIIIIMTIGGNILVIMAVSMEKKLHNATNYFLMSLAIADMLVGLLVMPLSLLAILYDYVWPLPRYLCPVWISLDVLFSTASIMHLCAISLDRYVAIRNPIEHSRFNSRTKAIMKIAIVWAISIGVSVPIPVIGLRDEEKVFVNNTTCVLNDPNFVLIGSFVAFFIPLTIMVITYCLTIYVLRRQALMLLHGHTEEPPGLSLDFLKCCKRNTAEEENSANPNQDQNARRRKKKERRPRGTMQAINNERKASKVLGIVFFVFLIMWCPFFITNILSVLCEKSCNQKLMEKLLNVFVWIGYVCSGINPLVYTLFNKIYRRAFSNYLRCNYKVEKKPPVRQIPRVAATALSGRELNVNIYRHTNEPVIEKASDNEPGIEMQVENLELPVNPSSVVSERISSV
Source text: radioligand displacement, membranes on 5-HT2C

5-HT1A = biological target: T2, 5-HT1A (Homo sapiens, UniProt P08908); experiment: biochemical; set-up: species or system HEK293 or CHO; competitive radioligand binding on crude membranes, filtration and scintillation counting; settings: for Ki: read-out: Ki (nM), 1A
T2 construct: gene HTR1A; human recombinant receptor, crude membranes of HEK293 or CHO cells
T2 sequence (P08908 1-422): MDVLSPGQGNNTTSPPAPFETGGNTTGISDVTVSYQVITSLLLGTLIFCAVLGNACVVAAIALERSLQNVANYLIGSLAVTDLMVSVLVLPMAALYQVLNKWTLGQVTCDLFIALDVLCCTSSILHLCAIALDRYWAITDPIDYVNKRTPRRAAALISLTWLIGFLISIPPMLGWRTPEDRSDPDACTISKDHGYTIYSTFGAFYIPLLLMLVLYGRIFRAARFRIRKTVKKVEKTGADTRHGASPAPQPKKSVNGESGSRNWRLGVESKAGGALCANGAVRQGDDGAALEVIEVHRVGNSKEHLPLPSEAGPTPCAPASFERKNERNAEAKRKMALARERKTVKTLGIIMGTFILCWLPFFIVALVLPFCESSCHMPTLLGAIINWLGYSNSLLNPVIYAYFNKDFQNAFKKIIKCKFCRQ
Description: Eleven dilutions (5 × assay concentration) of the test and reference compounds (Table S1) were prepared in standard binding buffer (50 mM tris(hydroxymethyl)-aminomethane-HCl (Tris-HCl), 10 mM MgCl2, 1 mM ethylenediaminetetraacetate (EDTA), pH 7.4) by serial dilution: 0.05 nM, 0.5 nM, 1.5 nM, 5 nM, 15 nM, 50 nM, 150 nM, 500 nM, 1.5 μM, 5 μM, and 50 μM. The radioligand (Table S3) was diluted to five times the assay concentration in standard binding buffer. Aliquots ([…]) of the radioligand were dispensed into the wells of a 96-well plate containing […] of standard binding buffer. Triplicate aliquots ([…]) of the test and reference compound dilutions were then added. Finally, crude membrane fractions ([…]) of cells (HEK293 or CHO) expressing human recombinant receptors were dispensed into each well. A total of […] of the reaction mixtures was incubated at room temperature and shielded from light for 1.5 h, and was then harvested by rapid filtration onto Whatman GF/B glass fiber filters presoaked with 0.3% polyethyleneimine, by using a 96-well Brandel harvester (Gaithersburg, MD, USA). Four rapid washes were performed with chilled standard binding buffer (500 mL) to decrease nonspecific binding. Filters were placed in 6 mL scintillation tubes and allowed to dry overnight. The next day, 4-mL of EcoScint scintillation cocktail (National Diagnostics) was added to each tube. The tubes were capped, labeled, and counted by […] scintillation counting. The filter mats were dried, and the scintillant was melted onto the filters, then the radioactivity retained on the filters was counted in a Microbeta scintillation counter. The IC50 values were obtained by using the Prism 4.0 program (GraphPad Software, La Jolla, CA, USA) and were converted into Ki values. Each compound was tested at least in triplicate. With each enantiomer (R)- or (S)-5d and 5e in hand, the optically active pyrimidine derivatives 4d–4e were synthesized following the same reaction sequences (Scheme 3). Finally, compounds 4d and 4e were assessed for their binding affinity to 5-HT2 receptor subtypes by radioligand binding assays. […] A further evaluation of these compounds for other 5-HT receptor subtypes was also performed and is provided in the supplementary data (Table S2). […] Considering the potencies and selectivities of 4, we can conclude that (R,R)-4e would be a viable candidate for a selective 5-HT2C modulator.

5-HT2A = biological target: T3, 5-HT2A (Homo sapiens, UniProt P28223); experiment: radioligand displacement, membranes; format: binding
T3 construct: gene HTR2A; human recombinant receptor; crude membrane fractions of transfected HEK293 or CHO cells
T3 sequence (P28223 whole entry): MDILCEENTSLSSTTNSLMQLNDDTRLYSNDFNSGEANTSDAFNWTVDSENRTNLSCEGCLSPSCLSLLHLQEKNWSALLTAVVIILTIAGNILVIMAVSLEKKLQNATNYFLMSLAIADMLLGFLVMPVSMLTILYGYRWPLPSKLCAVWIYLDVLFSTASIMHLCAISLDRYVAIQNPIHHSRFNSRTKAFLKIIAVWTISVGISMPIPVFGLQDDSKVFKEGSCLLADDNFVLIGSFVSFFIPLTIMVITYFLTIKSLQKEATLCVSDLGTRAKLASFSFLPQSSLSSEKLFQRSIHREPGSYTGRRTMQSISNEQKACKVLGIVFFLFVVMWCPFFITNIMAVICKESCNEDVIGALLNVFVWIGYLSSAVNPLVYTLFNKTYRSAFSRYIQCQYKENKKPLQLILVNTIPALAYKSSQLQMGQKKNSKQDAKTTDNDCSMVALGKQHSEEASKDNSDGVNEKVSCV
Source text: radioligand displacement, membranes on 5-HT2A

5-HT2C [2] = biological target: T1, 5-HT2C; experiment: [3H]mesulergine displacement, membranes; format: binding; settings: pH […] MgCl2, room temperature; reference compound, may stem from the authors' earlier study (ref […])
Source text: [3H]mesulergine displacement, membranes on 5-HT2C

Row | SMILES | pKi (5-HT2C [1]) | inhibition at 10 µM (5-HT1A) [%] | Ki (5-HT1A) [nM] | pKi (5-HT2A) | 5-HT2A / %Binding (5-HT2A; pH 7.4, 10 mM MgCl2, room temperature, single concentration, 10 μM) [%] | pKi (5-HT2C [2])
1 | C[C@@H]1CNCCN1c1ncc(F)c(O[C@H](C)c2cccc(F)c2)n1 [(R,R)-4d, 5-Fluoro-4-((R)-1-(3-fluorophenyl)ethoxy)-2-((R)-2-methylpiperazin-1-yl)pyrimidine] | 8.92 | 78 | 98 | 6.65 | – | –
2 | C[C@@H]1CNCCN1c1ncc(F)c(O[C@H](C)c2ccc(F)cc2)n1 [(R,R)-4e, 5-Fluoro-4-((R)-1-(4-fluorophenyl)ethoxy)-2-((R)-2-methylpiperazin-1-yl)pyrimidine] | 8.40 | 10 | – | – | 0.9 | –
3 | C[C@H](Oc1nc(N2CCNC[C@H]2C)ncc1F)c1cccc(F)c1 [(S,R)-4d, 5-Fluoro-4-((S)-1-(3-fluorophenyl)ethoxy)-2-((R)-2-methylpiperazin-1-yl)pyrimidine] | 7.85 | 67.7 | 806 | 6.32 | – | –
4 | C[C@H](Oc1nc(N2CCNC[C@H]2C)ncc1F)c1ccc(F)cc1 [(S,R)-4e, 5-Fluoro-4-((S)-1-(4-fluorophenyl)ethoxy)-2-((R)-2-methylpiperazin-1-yl)pyrimidine] | 7.64 | 67.3 | 1120 | 5.99 | – | –
5 | C[C@H](Cc1cccc(F)c1)Oc1nc(N2CCNC[C@H]2C)ncc1F [compound 3, pyrimidine analogue 3] | – | 89 | 353 | 6.89 | – | 9.15
